Here are results for one molecule from patent US20220305031A1, “METHODS FOR REDUCING TUMOR PROGRESSION AND FIBROSIS AND INCREASING ADAPTIVE IMMUNITY IN MALIGNANCIES” (GEORGETOWN UNIVERSITY, priority 2019, published 2022).

Common to all, as to format: in vivo
Data set [1] deals with tumors from NeuT/ATTAC mice. In words: Immunohistochemistry of FFPE tumor sections. As to the method:
(§1) Fibrosis was induced in mice at 6 w.o.a. by weekly i.p. injections of 0.4 mg/kg AP dissolved in vehicle (4% ethanol, 10% PEG-400, and 1.75% Tween-20 in water). Mice were maintained on LabDiet 5053 chow supplemented with 0.05% DMHCA (100 mg/kg) beginning at 8 w.o.a. Control mice received the standard diet.
Mammary tissue was excised and FFPE sections were prepared (Yuan et al., “MMTV-NeuT/ATTAC Mice: A New Model for Studying the Stromal Tumor Microenvironment,” Oncotarget. 9(8):8042-53 (2018); Yuan et al., “PPARdelta Induces Estrogen Receptor-Positive Mammary Neoplasia Through an Inflammatory and Metabolic Phenotype linked to mTOR Activation,” Cancer Res. 73(14):4349-4361 (2013); Yin et al., “Peroxisome Proliferator-Activated Receptor Delta and Gamma Agonists Differentially Alter Tumor Differentiation and Progression During Mammary Carcinogenesis,” Cancer Res. 65:3950-3957 (2005); Yin et al., “Inhibition of Peroxisome Proliferator-Activated Receptor Gamma Increases Estrogen Receptor-Dependent Tumor Specification,” Cancer Res. 69(2):687-694 (2009), each of which is hereby incorporated by reference in its entirety). Primary antibodies: PD-L1 (1:200, 17952-1-AP, Proteintech), SMA (1:100, sc130617, Santa Cruz), Ki67 (1:50, CRM325, Biocare), CD31 (1:100, ab56299, Abcam), CXCL1 (1:120, sc-1374, Santa Cruz), F4/80 (1:30, 14-4801-85, eBioscience), Foxp3 (1:50, 14-5773-82, e Bioscience), CD8a (1:40, 14-0808-82, eBioscience). Collagen was stained with Picrosirius Red stain (Yuan et al., “MMTV-NeuT/ATTAC Mice: A New Model for Studying the Stromal Tumor Microenvironment,” Oncotarget. 9(8):8042-53 (2018), which is hereby incorporated by reference in its entirety).

The subject of data set [2] is tumors from NeuT/ATTAC mice. Put plainly: FLIM and SHG microscopy of tumor sections. The settings on record: DMHCA-treated tumor vs control tumor. The text has this: SHG imaging using a multiphoton microscope equipped with a Deep Imaging Via Emission Recovery (DIVER) detector (Crosignani et al., “Deep Tissue Fluorescence Imaging and in Vivo Biological Applications,” J. Biomed. Opt. 17(11):116023 (2012), which is hereby incorporated by reference in its entirety) can distinguish collagen accumulation in the early stages of fibrosis unlike standard histological analysis (Dvornikov & Gratton, “Imaging in Turbid Media: A Transmission Detector Gives 2-3 Order of Magnitude Enhanced Sensitivity Compared to Epi-Detection Schemes,” Biomed. Opt. Express 7:3747-755 (2016); Ranjit et al., “Label-Free Fluorescence Lifetime and Second Harmonic Generation Imaging Microscopy Improves Quantification of Experimental Renal Fibrosis,” Kidney Int. 90:1123-1128 (2016), each of which is hereby incorporated by reference in its entirety). DIVER, by virtue of detection in the direction of light propagation is especially suitable for SHG detection and a combination of SHG and FLIM enables spatial mapping of collagen I and III, which is important for fibrosis. Additionally, this type of imaging is applicable to unstained tissues, which eliminates the uncertainty from issues associated with labeling efficiency. Moreover, the same tissue can be used for other purposes after imaging is complete. […]

Data set [3] relates to NeuT/ATTAC mice. In words: FACS analysis of immune cell subsets in tumor infiltrates and spleen. As to the method:
as §1
To assess whether DMHCA treatment could reduce immune tolerance in NeuT/ATTAC mice, a model that is highly resistant to PD-1 immunotherapy, spleen and tumor immune infiltrates were analyzed by FACS (FIGS. 6A-6C).
A general note: Flow cytometry measures light scatter and fluorescence of single cells or particles in a stream.

The subject of data set [4] is NeuT/ATTAC mice. Put plainly: Tumor development and multiplicity in AP-treated NeuT/ATTAC mice on DMHCA diet. The settings on record: diet with 0.05% DMHCA (~100 mg/kg/day).
Source text: The derivation and characteristics of MMTV-PPARd mice was reported in Yuan et al., “PPARdelta Induces Estrogen Receptor-Positive Mammary Neoplasia Through an Inflammatory and Metabolic Phenotype Linked to mTOR Activation,” Cancer Res. 73(14):4349-4361 (2013), which is hereby incorporated by reference in its entirety. […] FAT-ATTAC mice on a C57BL/6 background (Pajvani et al., “Fat Apoptosis Through Targeted Activation of Caspase 8: A New Mouse Model of Inducible and Reversible Lipoatrophy,” Nat. Med. 11(7):797-803 (2005); Landskroner-Eiger et al., “Morphogenesis of the Developing Mammary Gland. Stage-Dependent Impact of Adipocytes,” Dev. Biol. 344(2):968-978 (2010), each of which is hereby incorporated by reference in its entirety) were crossed into the FVB strain for several generations. Derivation of NeuT/ATTAC mice was reported in Yuan et al., “MMTV-NeuT/ATTAC Mice: A New Model for Studying the Stromal Tumor Microenvironment,” Oncotarget. 9(8):8042-8053 (2018), which is hereby incorporated by reference in its entirety. All animals were fed LabDiet 5303 and monitored for the NeuT, PPARd, and/or FKBPv-caspase 8 transgenes by genotyping.
as §1
Statistical significance was evaluated using the Mantel-Cox log-rank test for survival analysis and Prism GraphPad software or the two-tailed Student's t test to evaluate differences between means at a significance of P<0.05.
A study was designed to evaluate whether DMHCA treatment could abrogate tumor development in NeuT/ATTAC mice treated with AP.

The mark [5] stands for this setting: NeuT/ATTAC mice, DMHCA from two months of age.

Consider `C[C@H](CCC(=O)N(C)C)[C@H]1CC[C@H]2[C@@H]3CC=C4C[C@@H](O)CC[C@]4(C)[C@H]3CC[C@]12C` [DMHCA, dimethyl-3-beta-hydroxy-cholenamide], for which the CXCL1 expression result in data set [1] (IHC of tumors, FIG. 7) is recorded as “reduced CXCL1 expression”. Further, in data set [1] (setting [5]), the “fibroblast activation protein expression” value is “reduced” and the “smooth muscle actin expression” value was “reduced”. The “collagen I & collagen III detected by FLIM” value in data set [2] (FIG. 8C-8D) is “little collagen”. Besides, the “collagen I by SHG microscopy” value in data set [2] (FIG. 8E-8G) was “markedly reduced”. Further, the “PD1+/Foxp3+ CD4+ T cells” value with NeuT/ATTAC mice [3] (setting [5]) is “increase”. In the data set on NeuT/ATTAC mice [3] (spleen, vs control), the “CD4+ effector T cells” value is “enhanced”, the “CD8+ effector T cells” value is listed as “enhanced”, the G-MDSC result is “reduced” and the Treg cells result is “markedly reduced”. In the data set with NeuT/ATTAC mice [3] (tumor infiltrates, vs control), the “CD4+ effector T cells” value is “increased”, the “CD8+ effector T cells” value is recorded as “increased”, the G-MDSC result is “reduced” and the M-MDSC entry is “reduced”. Also, the Treg entry with NeuT/ATTAC mice [3] (tumor infiltrates, vs control) is recorded as “reduced”. Moreover, the tumor development entry with NeuT/ATTAC mice [4] (NeuT/ATTAC mice treated with AP, FIG. 5A) is on record as “reduction in tumor development”. Further, the “decrease in tumor multiplicity” value in the data set on NeuT/ATTAC mice [4] (NeuT/ATTAC mice treated with AP, FIG. 5B) is on record as 10 fold. Besides, the “toxicity of dietary dose” value in the data set with NeuT/ATTAC mice [4] was “nontoxic”.
